In patent US11186533B2, “Chalcone compound and preparation method thereof” (SOUTH CHINA BOTANICAL GARDEN, CHINESE ACADEMY OF SCIENCES, priority 2018, dated 2021):

Experiments:
[1] = DPPH radical scavenging assay; settings: 0.2 mM DPPH in absolute ethanol, dark, room temperature, 30 minutes, absorbance at 517 nm; read-out: IC50 value against DPPH radicals
Procedure: DPPH is a stable free radical. When a free radical scavenger is present, light absorption of DPPH will be reduced when the single electron is scavenged, which allows to evaluate free radical scavenging ability of the substance and accordingly determine antioxidant ability thereof. The DPPH radical scavenging ability of the compound 2,2′,4,4′-tetrahydroxy-3-(2″-hydroxy-3″-methylbutyl-3″-alkenyl)chalcone was measured through the DPPH radical scavenging assay, so as to evaluate the antioxidant ability of the compound. The assay comprised the following steps:
1,1-Diphenyl-2-picrylhydrazyl (DPPH) was dissolved in absolute ethanol to obtain a solution with a concentration of 0.2 mM. The compound 2,2′,4,4′-tetrahydroxy-3-(2″-hydroxy-3″-methylbutyl-3″-alkenyl)chalcone was dissolved in absolute ethanol. 80 μL of the ethanol solution of 2,2′,4,4′-tetrahydroxy-3-(2″-hydroxy-3″-methylbutyl-3″-alkenyl)chalcone and 160 μL of the 0.2 mM DPPH ethanol solution were mixed and the mixture was placed in dark at room temperature for 30 minutes. Then, light absorbance at 517 nm was measured using a microplate reader (SpectraMax 190, Molecular Devices, USA).

Solubility in methanol = type: physicochemical

- IC50 [1]: 21.6 µM
- solubility in methanol (Solubility in methanol): easily soluble in methanol
Compound: C=C(C)C(O)Cc1c(O)ccc(C(=O)/C=C/c2ccc(O)cc2O)c1O (centres unmarked) [compound 1, 2,2′,4,4′-tetrahydroxy-3-(2″-hydroxy-3″-methylbutyl-3″-alkenyl)chalcone]
